The source of these data is the OPERA property sets (Mansouri et al. 2018).

For orientation: logP means the decadic logarithm of the partition coefficient of the neutral form, usually between octanol and water. High values mean higher lipophilicity, low ones lower lipophilicity.

Peptide text beside a SMILES is read from it.

Regarding `CC(=O)OCCc1ccccc1`, the log partition coefficient (logP) is 2.3.
The result for `NNC(=O)c1cccc(I)c1` reads 1.53; that for `O=C(NC(=O)c1ccccc1O)c1ccccc1O`, 1.92.
The result for `O=Cc1ccc(OCC(=O)O)cc1` reads 0.79; that for `Cc1c(I)c(=O)n(-c2ccccc2)n1C`, 1.27; that for `O=P1(NCCCl)OCCCN1CCCl` (stereo unspecified), 0.86.
Next, `N#CCc1ccccc1`: 1.56.
`O=C(O)C(c1ccc(Cl)cc1)n1cccc1` (stereo unspecified) had a lipophilicity (logP) of 2.3.
The molecule `CCC(=O)c1ccc(O)cc1` came in with a logP of 2.03.
In turn, `CC(=O)COc1ccccc1` showed a logP of 1.04.
The result for `CNC(=S)NNc1ccccc1` reads 1.17; that for `CN(C)c1nc(N(C)C)nc(N(C)C)n1`, 2.73.
Next, `COc1ccc(C(c2ccc(OC)cc2)C(F)(F)F)cc1`: 4.76; `O=c1n[n+]([O-])ccn1C1OC(CO)C(O)C1O` (stereo unspecified): -2.43; `CCc1ccccc1N`: 1.74.
Next, `O=NN(CCCl)C(=O)NC1CCCC1`: 2.2.
In turn, `CN(C)CCN(C)C` had a log partition coefficient (logP) of 0.3.
Next, `CCNCc1cccnc1`: 0.76; `CCc1cc(-c2ccccc2)nnc1NCCN1CCOCC1`: 2.53.
Next, `CCOC(=O)c1cc2ccc(CC)cc2nn1`: 2.31; `C#CCCCC`: 2.73.
Next, `COc1ccc(C(c2ccc(OC)cc2)C(Cl)(Cl)Cl)cc1`: 5.08; `c1ccc(-c2cc3ccccc3[nH]2)nc1`: 3.33; `CN(C)S(=O)(=O)c1ccc(N)cc1`: 0.67.
`CCCCCN(C)/N=N/c1ccc(C(N)=O)cc1`: the log partition coefficient (logP) came to 3.18.
Next, `O=C(O)COc1ccc(I)cc1`: 2.69.
The result for `COc1cccc(OCC(=O)O)c1` reads 1.38.
Next, `COC(C)(C)CCCC(C)C/C=C/C(C)=C/C(=O)OC(C)C` (stereo unspecified): 5.5.
Consider `CCOC(=O)CNC(=O)CNC(=O)CCCCSc1ncnc2nc[nH]c12`, for which the logP was 0.5.
The result for `CN1CCCC1` reads 0.92; that for `CN(C)C(=O)c1ccccc1`, 0.62.
As for `CCOC(=O)c1cccc([N+](=O)[O-])c1`, the log partition coefficient (logP) turned out to be 2.35.
The result for `CC(=O)c1ccc2cccccc1-2` reads 2.87; that for `CN(C)C(=O)OCc1ccc(C#N)cc1`, 1.67; that for `NC(=O)C1CCCN1C(=O)C(Cc1cn(C(=O)OCc2ccccc2)cn1)NC(=O)C1CCC(=O)N1` (stereo unspecified), -0.11.
In the case of `Cc1ccc(S(=O)(=O)N(C)N=O)cc1`, the logP is 0.58.
Molecule `O=C(O)C(c1ccc(-c2ccccc2)cc1)C(O)c1ccccc1F` (stereo unspecified) yielded a logP of 3.77.
The result for `CNCC(c1ccccc1)C(C)C` (stereo unspecified) reads 3.12; that for `CC(=O)c1ccc[nH]1`, 0.93.
The result for `O=P(c1ccccc1)(c1ccccc1)c1ccccc1` reads 2.83.
`c1ccc2[nH]ccc2c1` yielded a lipophilicity (logP) of 2.14.
Next, `O=C(O)c1cccc([N+](=O)[O-])c1C(=O)O`: 0.75.
Next, `CC(=O)c1cccc(OCC(=O)O)c1`: 0.98; `Cc1cc(Cl)ccc1N=CN(C)C`: 2.89; `CCOC(=O)C(=Cc1cccc([N+](=O)[O-])c1)C(=O)OCC`: 2.71.
Next, `CC(=O)Nc1ccc(N(C)C)cc1`: 1; `COc1ccc(CC#N)cc1`: 1.7.
As to `ON=Cc1ccc(F)cc1`, the logP amounted to 2.03.
The result for `Nc1ccc(-c2ccc(N)c(Cl)c2)cc1Cl` reads 3.51; that for `CC(=O)c1cccc(C(=O)O)c1`, 1.56.
Turning to `Clc1cccc(-c2cccc(Cl)c2Cl)c1`, the logP was found to be 5.57.
The result for `Cc1cc2ccccc2cc1C` reads 4.4; that for `Cn1c(N)nc2cc(Cl)c(Cl)cc21`, 2.98.
The result for `COc1ccc(-c2nc3ccncc3n2C)c(OC)c1` reads 2.68; that for `ClCc1ccc(Cl)cc1Cl`, 3.82.
Next, `COc1ccc(C=C(C(C)=O)C(C)=O)c(OC)c1`: 1.88; `O=C(O)CCn1nnc2ccccc21`: -0.63; `CC(=O)Oc1ccc(N)cc1`: 0.45.
Turning to `S=C=Nc1ccccc1`, the logP worked out at 3.28.
Next, `O=C1CCCCCCN1`: 0.24; `CCCCCCCCCCNC(=O)c1[nH]nc(C)c1[N+](=O)[O-]`: 4.48; `CC1CCCC(C)N1` (stereo unspecified): 1.53.
The result for `ON=CCCc1ccccc1` reads 1.56.
The result for `O=C1C(F)=C(N2CC2)C(=O)C(N2CC2)=C1N1CC1` reads 0.14; that for `O=C(CBr)NC(CO)C(O)c1ccc([N+](=O)[O-])cc1` (stereo unspecified), 0.66.
As to `O=C(O)CCS`, the logP stood at 0.43.
`OCc1ccc2cccnc2c1` registered a logP of 1.29.
In the case of `Nc1cc(C(F)(F)F)cc(C(F)(F)F)c1`, the logP was 3.57.
The result for `CN(CC(C)(C)C)N=O` reads 1.34; that for `N#Cc1c[nH]c(=O)[nH]c1=O`, -0.93; that for `CC(=O)Nc1ccc(C(=O)O)cc1`, 1.31.
The result for `CC1(O)CC23CC(O)C4(O)C(CC(O)C4(C)C)C(C)(O)C2CCC1C3O` (stereo unspecified) reads 0.27.
The result for `CCCCC(NC(Cc1ccccc1)C(=O)N1CCC(OCOC)CC1)C(=O)NC(CC1CCCCC1)C(O)CC(C(=O)NCCNc1noc(N)n1)C(C)C` (stereo unspecified) reads 4.11; that for `Cc1nnc(NS(=O)(=O)c2ccc(N)cc2)s1`, 0.54.
`CCc1cccc(O)c1`: the lipophilicity (logP) was 2.4.
Next, `CSCC[C@H](N)C(=O)O`: -1.87; `O=C(O)c1c[nH]c2ccccc12`: 1.99; `COc1ccccc1-c1nc(N)nc(N)n1`: 0.58.
Take `O=C(O)C1CCCCC1`: the logP is 1.96.
Next, `NC(=O)NNC(=O)c1ccccc1`: -0.5; `CCCCNc1nc(NC)nc(SC(F)F)n1`: 3.7; `CCCOc1cncc(C)n1`: 2.29.
For `NC(=O)c1ccc(N)cc1`, the logP was -0.41.
The result for `CC(=O)c1ccco1` reads 0.52; that for `COc1ccc(C(C#N)C(C)C)cc1` (stereo unspecified), 2.68.
The result for `O=C(O)c1ccccc1Nc1ccccc1` reads 4.36; that for `CC(=O)c1cccc(F)c1`, 1.77; that for `CNC(=O)Oc1ccc([N+](=O)[O-])cc1`, 1.47.
The result for `COC(=O)CCCCC(C)=O` reads 0.55.
Consider `CN(C)C(=N)N(C)C`, for which the lipophilicity (logP) came out at 0.41.
Next, `c1ccc2nc3ccccc3nc2c1`: 2.84.
Next, `O=C(CN1CCCCC1)Nc1ccccc1Br`: 2.94; `CC(=O)OC(OC(C)=O)c1ccccc1`: 1.62.
The result for `CC(C)Nc1nc(NC(C)C)nc(SC(F)F)n1` reads 4.25; that for `CN1C(=O)c2ccccc2C1=O`, 1.31; that for `C=C(CC(=O)c1ccc(-c2ccccc2Cl)cc1)C(=O)O`, 3.32.
Molecule `CCCC(=O)OCC1CCC(n2cnc3c(=O)[nH]cnc32)O1` (stereo unspecified) gave a log partition coefficient (logP) of 0.11.
Next, `N#CC(C(=O)NC(CO)C(O)c1ccc([N+](=O)[O-])cc1)c1ccccc1` (stereo unspecified): 1.47; `CNC(=O)Oc1cccc(N(C)C)c1`: 1.43; `CC(=O)NC(CCC(=O)O)C(=O)NC(Cc1ccccc1)C(=O)NC(CC(C)C)C(N)=O` (stereo not drawn) (Ac-Glu-Phe-Leu-NH2; configuration not given here): 0.32.
The result for `Clc1cccc2c1CCNCC2` reads 2.4.
`CC1=C(C(=O)Nc2ccccc2)SCCO1` had a logP of 2.14.
Next, `CCNc1nc(NCC)nc(SC(F)F)n1`: 3.28; `CCC(C)n1c(=O)[nH]c(C)c(Br)c1=O` (stereo unspecified): 2.11.
Next, `CCCCCCCCl`: 4.15.
The molecule `CC(C)CC(=O)NN` came in with a logP of -0.31.
Next, `O=C(C=CC(=O)c1ccccc1)c1ccccc1`: 3.16; `COC1=C(N2CC2)C(=O)C(OC)=C(N2CC2)C1=O`: 0.17; `Cn1ccccc1=O`: -0.23.
As for `CCc1ccncc1`, the lipophilicity (logP) was 1.65.
The result for `CN1C(CCl)Nc2cc(Cl)c(S(N)(=O)=O)cc2S1(=O)=O` (stereo unspecified) reads 1.42; that for `COc1cc2c(c(OC)c1O)-c1ccc(OC)c(=O)cc1[C@@H](NC(=O)C(F)(F)F)CC2`, 1.67; that for `Nc1ccccc1N`, 0.15.
As to `O=C(CO)NCc1ccccc1`, the logP stood at 0.55.
The result for `ON=Cc1ccncc1` reads 0.77; that for `CCCCC(CC)COP(=O)(Oc1ccccc1)Oc1ccccc1` (stereo unspecified), 5.73; that for `COCCN(C)c1ccc(Nn2c(C)ccc2C)nn1`, 2.16.
The result for `NC(=O)c1ccoc1` reads 0.09; that for `CC(=O)Oc1c[nH]c2ccccc12`, 2.01; that for `CCc1nnc(NS(=O)(=O)c2ccc(N)cc2)s1`, 1.01.
The result for `S=C1CCCCN1` reads 0.13; that for `CCCNC(=O)c1[nH]nc(C)c1[N+](=O)[O-]`, 0.65; that for `COc1cc2c(c(OC)c1OC)-c1ccc(O)c(=O)cc1C(NC(C)=O)CC2` (stereo unspecified), 1.2.
`O=NN(c1ccccc1)c1ccccc1`: the logP was 3.13.
Next, `CCCCOC(C)=O`: 1.78; `CC(C)OCCO`: 0.05; `CNC(=O)Oc1cc(C)ccc1C(C)(C)C`: 3.14.
Next, `Cc1nn(-c2ccccc2)c(C)c1N=O`: 2.28; `CCc1ccccc1O`: 2.47; `NC(=O)CCc1cccnc1`: -0.26.
Next, `O=C(O)Cc1ccccc1F`: 1.5.
In turn, `Nc1ccc(Cl)cc1N` showed a lipophilicity (logP) of 1.28.
`CCNC(=S)Nc1ccccc1` displayed a log partition coefficient (logP) of 1.42.
Next, `CCC(C)NC(=O)C(=Cc1ccccc1)SC` (stereo unspecified): 3.03; `CC[C@H](C)[C@H](NC(C)=O)C(=O)N[C@@H](CC(N)=O)C(N)=O` (Ac-Ile-Asn-NH2): -1.41.
Next, `Nc1ccc(C[C@H](N)C(=O)O)cc1`: -2.2.
